Among the test systems are SR leukemia; SW-620 colon; HL-60(TB) leukemia; MALME-3M melanoma; K-562 leukemia; HCC-2998 colon; KM12 colon; HT29 colon; SNB-19 CNS; NCI-H460 lung.
Assay in all cases: NCI anticancer screen, dose series, 48 h

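Grown in 96-well plates, cells were treated for 48 hours with each compound at five concentrations. Insufficient inhibition: endpoint recorded as highest concentration tested. Abbreviation: GI50, concentration required for 50% inhibition of growth. TGI denotes the concentration required for complete inhibition of growth.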 Where only a bound is given, the exact number is not on record here.

For `Oc1ccc(C(c2ccc(O)cc2)c2ccc(Cl)cn2)cc1`, the GI50 was 29500 nM with SR leukemia; 60.7 µM with SW-620 colon; 3560 nM in the assay with HL-60(TB) leukemia; 24600 nM in the assay on MALME-3M melanoma; 13.5 µM with K-562 leukemia; 279 nM with HCC-2998 colon. In addition, the GI50 was 463 nM with KM12 colon, 4.97 µM in the assay on HT29 colon, 19.1 µM with SNB-19 CNS and 31.6 µM in the assay on NCI-H460 lung. For the same compound, the TGI with SR leukemia is greater than 100 µM; in the assay on SW-620 colon it was greater than 100 µM; with HL-60(TB) leukemia it was 22 µM; in the assay with MALME-3M melanoma, greater than 100 µM; in the assay on K-562 leukemia, greater than 100 µM; in the assay with HCC-2998 colon, 9.36 µM. In addition, the TGI in the assay on KM12 colon, in the assay on HT29 colon, with SNB-19 CNS and in the assay on NCI-H460 lung was greater than 100 µM throughout.

For `O=C(Nc1ccc(F)cc1)c1ccc(NC2=C(Cl)C(=O)N(Cc3ccccc3)C2=O)cc1`, the GI50 with SR leukemia is 848 nM; in the assay on SW-620 colon it was 4.54 µM; with HL-60(TB) leukemia, 2310 nM; in the assay on K-562 leukemia, 3.79 µM; in the assay on HCC-2998 colon, 11000 nM; in the assay with KM12 colon, 15900 nM. The values for the GI50 in the assay on HT29 colon, with SNB-19 CNS and with NCI-H460 lung were 13.1 µM, 10.8 µM and 7.32 µM, respectively. Besides, the TGI with SR leukemia was 2.54 µM; in the assay on SW-620 colon it was greater than 100 µM; with HL-60(TB) leukemia it was 7.35 µM; in the assay with K-562 leukemia, 13.7 µM; with HCC-2998 colon, greater than 100 µM; in the assay with KM12 colon, 38 µM. In addition, the TGI in the assay on HT29 colon was greater than 100 µM; in the assay with SNB-19 CNS it was 41.3 µM; in the assay with NCI-H460 lung it was greater than 100 µM.

For `O=Nc1c(-c2c(O)[nH]c3ccc([N+](=O)[O-])cc23)[nH]c2ccc(O)cc12`, the GI50 with SR leukemia was 258 nM; in the assay with SW-620 colon it was 0.385 µM; with HL-60(TB) leukemia it was 312 nM; in the assay on MALME-3M melanoma it was 781 nM; with K-562 leukemia it was 0.456 µM; in the assay with HCC-2998 colon, 836 nM. Further, the GI50 in the assay with KM12 colon was 298 nM; with HT29 colon, 12.4 µM; in the assay on SNB-19 CNS, 0.465 µM; in the assay with NCI-H460 lung, 0.32 µM. The TGI in the assay with SR leukemia was 12.6 µM; in the assay on SW-620 colon it was greater than 100 µM; with HL-60(TB) leukemia, 1.04 µM; with MALME-3M melanoma, 45.3 µM; in the assay on K-562 leukemia, greater than 37.7 µM; with HCC-2998 colon, greater than 100 µM. In addition, the TGI with KM12 colon is 1.28 µM; in the assay on HT29 colon, greater than 100 µM; in the assay on SNB-19 CNS, greater than 100 µM.

For `CC1(C)C(=O)C(C)(C)C1=NN`, the TGI with SR leukemia, in the assay with SW-620 colon, in the assay on HL-60(TB) leukemia, with MALME-3M melanoma, with K-562 leukemia and with HCC-2998 colon was greater than 100 µM in each case. Besides, the TGI in the assay on KM12 colon, with HT29 colon, with SNB-19 CNS and with NCI-H460 lung was greater than 100 µM each time.

For the compound `C=CCN(/C=C1/C(=O)O[C@H](COC)[C@@]2(C)C1=C(O)C(=O)C1=C2[C@H](OC(C)=O)C[C@]2(C)C(=O)CC[C@@H]12)CC=C`, the GI50 in the assay on SR leukemia was 708 nM; in the assay on SW-620 colon, 2.17 µM; with HL-60(TB) leukemia it was 286 nM; in the assay on MALME-3M melanoma it was 784 nM; in the assay with K-562 leukemia, greater than 8.1 µM; in the assay on HCC-2998 colon, 385 nM. Further, the GI50 in the assay on KM12 colon was 2520 nM; in the assay on HT29 colon it was 0.422 µM; in the assay on SNB-19 CNS, 3.45 µM; with NCI-H460 lung, 0.585 µM. The TGI is greater than 10 µM in the assay on SR leukemia; greater than 10 µM with SW-620 colon; greater than 10 µM in the assay on HL-60(TB) leukemia; greater than 10 µM in the assay with MALME-3M melanoma; greater than 10 µM with K-562 leukemia; greater than 7.08 µM in the assay on HCC-2998 colon. In addition, the TGI in the assay on KM12 colon, in the assay with HT29 colon, in the assay with SNB-19 CNS and in the assay with NCI-H460 lung was greater than 10 µM each time.

Turning to `COc1ccccc1N=C(N)N/N=C/c1c[nH]c2ccccc12`, the TGI came to 26.9 µM in the assay with SR leukemia; 10.4 µM in the assay with SW-620 colon; 33.3 µM in the assay with HL-60(TB) leukemia; 8.19 µM in the assay on MALME-3M melanoma; 11.6 µM in the assay with K-562 leukemia; 6.27 µM with HCC-2998 colon. Further, the TGI in the assay on KM12 colon was found to be 29.6 µM; in the assay with HT29 colon it was 14.9 µM; in the assay with SNB-19 CNS, 28.6 µM; in the assay on NCI-H460 lung, 22.8 µM.

As to `CC12N=NN(c3ccc([N+](=O)[O-])cc3)C1(O)c1ccccc1C2=O` (stereo unspecified), the TGI in the assay with SR leukemia, with SW-620 colon, with HL-60(TB) leukemia, in the assay on MALME-3M melanoma, in the assay on HCC-2998 colon and in the assay with KM12 colon was greater than 100 µM throughout. The TGI in the assay with HT29 colon, in the assay with SNB-19 CNS and in the assay with NCI-H460 lung was greater than 100 µM each time.

As for `OCCCOC(c1ccccc1)(c1ccccc1)c1ccccc1`, the TGI in the assay on SR leukemia, with SW-620 colon, in the assay with HL-60(TB) leukemia, in the assay on MALME-3M melanoma, in the assay with K-562 leukemia and in the assay with HCC-2998 colon was greater than 100 µM in each case. The values for the TGI in the assay with KM12 colon, in the assay with HT29 colon and in the assay on NCI-H460 lung were greater than 100 µM, 92.8 µM and greater than 100 µM, respectively.

Regarding `CSC(CC(=O)O)C(=O)O` (stereo unspecified), the TGI in the assay on SR leukemia, with SW-620 colon, in the assay with HL-60(TB) leukemia, in the assay on MALME-3M melanoma, in the assay with HCC-2998 colon and in the assay on KM12 colon was greater than 100 µM each time. The TGI in the assay with HT29 colon, in the assay with SNB-19 CNS and with NCI-H460 lung was greater than 100 µM in each case.

With `O=C(c1ccccc1)C1CCCCN1C(=O)c1ccccc1` (stereo unspecified), the TGI with SR leukemia, in the assay on SW-620 colon, in the assay with HL-60(TB) leukemia, with MALME-3M melanoma, in the assay with K-562 leukemia and in the assay on HCC-2998 colon was greater than 100 µM throughout. Besides, the TGI in the assay on KM12 colon, in the assay on SNB-19 CNS and in the assay on NCI-H460 lung was greater than 100 µM throughout.

Turning to `COc1ccc(C2SCC(=O)N2NC(=O)C(O)c2ccccc2)cc1OC` (stereo unspecified), the GI50 is 40900 nM with SR leukemia; greater than 100 µM in the assay on SW-620 colon; greater than 100000 nM in the assay with HL-60(TB) leukemia; greater than 100 µM in the assay on K-562 leukemia; greater than 100000 nM in the assay on HCC-2998 colon; greater than 100000 nM in the assay on KM12 colon. Further, the GI50 in the assay with HT29 colon, with SNB-19 CNS and with NCI-H460 lung was greater than 100 µM in each case. Also, the TGI in the assay with SR leukemia, in the assay on SW-620 colon, with HL-60(TB) leukemia, with K-562 leukemia, with HCC-2998 colon and with KM12 colon was greater than 100 µM in each case. Also, the TGI in the assay with HT29 colon, in the assay with SNB-19 CNS and in the assay with NCI-H460 lung was greater than 100 µM each time.

These data come from PubChem BioAssay (NCI).
